The values below come from patent US20250382279A1, “COMPOUNDS AND METHODS FOR YAP/TEAD MODULATION AND INDICATIONS THEREFOR” (OPNA BIO SA, priority 2023, published 2025).

SMILES strings stand for the structures.

The subject of the experiment is TEAD-dependent transcription. The experiment in a line: Inhibitor activity against TEAD-dependent transcription in a cell-based reporter assay (MSTO-211H+12XGTIIC luciferase). The settings on record: Homo sapiens; MSTO-211H+12XGTIIC cell line, 24 hours compound incubation, luminescence normalized to cell viability fluorescence; read-out: MSTO-211H GMean IC50 (uM) Cell Assay Reporter Cell Variant: TEAD. The source says:
Determine Inhibitor Activity Against TEAD-Dependent Transcription in a Cell-Based Reporter Assay
The human mesothelioma cell line MSTO-211H was stably transfected with a pGL4.21 plasmid containing a synthetic promoter with 12 copies of the GTIIC TEAD response element that drives the expression of a luciferase reporter gene^1 using Lipofectamine transfection reagent (Thermno Fisher). Transfected cells were selected using puromycin and single cell clones expressing this construct (referred to as MSTO-211H+12XGTIIC) were generated by limiting dilution. MSTO-211H cells was characterized by genetic alterations in key components of the Hippo pathway^2, resulting in up-regulation of YAP/TEAD-mediated transcription. […] To evaluate TEAD inhibitors, the MSTO-211H+12XGTIIC cell line was seeded in a 96-well plate in 50 μL of culture media at 1×10^4 cells per well and incubated at 37° C. overnight. Serial dilutions of compounds (in total volume of 50 μL of culture media) were added to the cells and incubated at 37° C. for 24 hours. Each plate included cells treated with DMSO as high controls and cells treated with 20 μM of the reference compound K-975 (a known TEAD inhibitor)^3 as low controls. Cell viability was assayed by the addition of 25 μL of CellTiter-Fluor reagent (Promega) followed by a 30-minute incubation at 37° C. and quantification of the fluorescence signal (Ex400/Em505). Subsequently, luciferase expression was assayed by the addition of 25 μL of ONE-Glo reagent (Promega) followed by a 10-minute incubation at room temperature and quantification of the luminescence signal. The luminescence signal was normalized to the fluorescence signal to correct for any loss in cell viability over the 24-hour compound incubation period. The percentage of inhibition of normalized luminescence signal, indicative of compound-mediated inhibition of TEAD-dependent transcription, at individual compound concentrations relative to high and low controls was calculated. The data were analyzed by using nonlinear regression to generate IC50 values for individual compounds.
In general, IC50 refers to the midpoint of a concentration-inhibition curve. `O=C1c2cc(Oc3ccc(C(F)(F)F)cc3)ccc2CCN1c1ccnc(S(=O)(=O)C(F)(F)F)n1` [O-0044, 7-(4-(trifluoromethyl)phenoxy)-2-(2-((trifluoromethyl)sulfonyl)pyrimidin-4-yl)-3,4-dihydroisoquinolin-1(2H)-one]: the IC50 lay in the range of 0.001 to 10 µM.

In the case of `O=C1c2cc(Oc3ccc(C(F)(F)F)cc3)ccc2CCN1c1ccc2nc(C(F)(F)F)sc2c1` [O-0046, 2-(2-(trifluoromethyl)benzo[d]thiazol-6-yl)-7-(4-(trifluoromethyl)phenoxy)-3,4-dihydroisoquinolin-1(2H)-one], the IC50 is 0.001 to 10 µM.

With `CS(=O)(=O)N1CCCC(N2CCc3c(Oc4ccc(C(F)(F)F)cc4)cccc3C2=O)C1` (stereo not shown) [O-0022, 2-(1-(methylsulfonyl)piperidin-3-yl)-5-(4-(trifluoromethyl)phenoxy)-3,4-dihydroisoquinolin-1(2H)-one], the IC50 fell in the range of 0.001 to 10 µM.

With `O=C1c2cc(Oc3ccc(C(F)(F)F)cc3)ccc2CCN1c1cccc(S(=O)(=O)C(F)(F)F)c1` [O-0035, 7-(4-(trifluoromethyl)phenoxy)-2-(3-((trifluoromethyl)sulfonyl)phenyl)-3,4-dihydroisoquinolin-1(2H)-one], the half-inhibitory concentration (IC50) was in the range of 0.001 to 10 µM.

Consider `O=C1c2cccc(Oc3ccc(C(F)(F)F)cc3)c2CCN1c1ccc2nc(C(F)(F)F)sc2c1` [O-0014, 2-(2-(trifluoromethyl)benzo[d]thiazol-6-yl)-5-(4-(trifluoromethyl)phenoxy)-3,4-dihydroisoquinolin-1(2H)-one], for which the IC50 lay within 0.001 to 10 µM.

As to `O=C1c2cccc(Oc3ccc(C(F)(F)F)cc3)c2CCN1c1ccnc(S(=O)(=O)C(F)(F)F)n1` [O-0019, 5-(4-(trifluoromethyl)phenoxy)-2-(2-((trifluoromethyl)sulfonyl)pyrimidin-4-yl)-3,4-dihydroisoquinolin-1(2H)-one], the half-inhibitory concentration (IC50) fell in the range of 0.001 to 10 µM.

On to `O=C1c2cc(Oc3ccc(C(F)(F)F)cc3)ccc2CCN1c1ccc2nc(C(F)(F)F)[nH]c2c1` [O-0045, 2-(2-(trifluoromethyl)-1H-benzo[d]imidazol-6-yl)-7-(4-(trifluoromethyl)phenoxy)-3,4-dihydroisoquinolin-1(2H)-one], for which the half-inhibitory concentration (IC50) was in the range of 0.001 to 10 µM.

As to `O=C1c2cc(Oc3ccc(C(F)(F)F)cc3)ccc2CCN1c1cccc(-c2cscn2)c1` [O-0039, 2-(3-(thiazol-4-yl)phenyl)-7-(4-(trifluoromethyl)phenoxy)-3,4-dihydroisoquinolin-1(2H)-one], the IC50 lay within 0.001 to 10 µM.

On to `O=C1c2cccc(Oc3ccc(C(F)(F)F)cc3)c2CCN1c1cccc(C(F)(F)F)c1` [O-0003, 5-(4-(trifluoromethyl)phenoxy)-2-(3-(trifluoromethyl)phenyl)-3,4-dihydroisoquinolin-1(2H)-one], for which the 50% inhibitory concentration (IC50) was 0.001 to 10 µM.

For `C=CC(=O)Nc1ccc(N2CCc3c(Oc4ccc(C(F)(F)F)cc4)cccc3C2=O)cc1` [O-0013, N-(4-(1-oxo-5-(4-(trifluoromethyl)phenoxy)-3,4-dihydroisoquinolin-2(1H)-yl)phenyl)acrylamide], the IC50 was 0.001 to 10 µM.

Regarding `CS(=O)(=O)c1cccc(N2CCc3ccc(Oc4ccc(C(F)(F)F)cc4)cc3C2=O)n1` [O-0031, 2-(6-(methylsulfonyl)pyridin-2-yl)-7-(4-(trifluoromethyl)phenoxy)-3,4-dihydroisoquinolin-1(2H)-one], the IC50 was 0.001 to 10 µM.

Turning to `CS(=O)(=O)c1nccc(N2CCc3ccc(Oc4ccc(C(F)(F)F)cc4)cc3C2=O)n1` [O-0036, 2-(2-(methylsulfonyl)pyrimidin-4-yl)-7-(4-(trifluoromethyl)phenoxy)-3,4-dihydroisoquinolin-1(2H)-one], the IC50 lay within 0.001 to 10 µM.

On to `O=C1c2cc(Oc3ccc(C(F)(F)F)cc3)ccc2CCN1c1cccc(-c2nccs2)c1` [O-0038, 2-(3-(thiazol-2-yl)phenyl)-7-(4-(trifluoromethyl)phenoxy)-3,4-dihydroisoquinolin-1(2H)-one], for which the IC50 lay within 0.001 to 10 µM.

On to `O=C1c2cccc(Oc3ccc(C(F)(F)F)cc3)c2CCN1c1ccnc([S+]([O-])C(F)(F)F)n1` (stereo not shown) [O-0112, 5-(4-(trifluoromethyl)phenoxy)-2-(2-((trifluoromethyl)sulfinyl)pyrimidin-4-yl)-3,4-dihydroisoquinolin-1(2H)-one], for which the IC50 is 0.001 to 10 µM.

`O=C1c2cccc(Oc3ccc(C(F)(F)F)cc3)c2CCN1c1cccc(S(=O)(=O)C(F)(F)F)c1` [O-0005, 5-(4-(trifluoromethyl)phenoxy)-2-(3-((trifluoromethyl)sulfonyl)phenyl)-3,4-dihydroisoquinolin-1(2H)-one]: the IC50 lay within 0.001 to 10 µM.

For `C=CC(=O)Nc1cccc(N2CCc3c(Oc4ccc(C(F)(F)F)cc4)cccc3C2=O)c1` [O-0012, N-(3-(1-oxo-5-(4-(trifluoromethyl)phenoxy)-3,4-dihydroisoquinolin-2(1H)-yl)phenyl)acrylamide], the IC50 was in the range of 0.001 to 10 µM.

In the case of `Nc1ccc(N2CCc3c(Oc4ccc(C(F)(F)F)cc4)cccc3C2=O)cc1` [O-0010, 2-(4-aminophenyl)-5-(4-(trifluoromethyl)phenoxy)-3,4-dihydroisoquinolin-1(2H)-one], the IC50 was in the range of 0.001 to 10 µM.

Turning to `Nc1cccc(N2CCc3c(Oc4ccc(C(F)(F)F)cc4)cccc3C2=O)c1` [O-0011, 2-(3-aminophenyl)-5-(4-(trifluoromethyl)phenoxy)-3,4-dihydroisoquinolin-1(2H)-one], the 50% inhibitory concentration (IC50) lay in the range of 0.001 to 10 µM.

On to `CS(=O)(=O)c1ccnc(N2CCc3ccc(Oc4ccc(C(F)(F)F)cc4)cc3C2=O)c1` [O-0033, 2-(4-(methylsulfonyl)pyridin-2-yl)-7-(4-(trifluoromethyl)phenoxy)-3,4-dihydroisoquinolin-1(2H)-one], for which the half-maximal inhibitory concentration (IC50) was in the range of 0.001 to 10 µM.
